According to ChEMBL document CHEMBL5357051, “Quinoline, Indole, and Isogranatanine Alkaloids from Malayan Leuconotis eugeniifolia” (J Nat Prod, 2024):

How the values were obtained:
HCT-116 = assay: Cytotoxicity against human HCT-116 cells assessed as inhibition of cell growth incubated for 72 hrs by MTT assay; format: functional, cell-based; conditions: HCT-116, 72 h
HT-29 = assay: Cytotoxicity against human HT-29 cells assessed as inhibition of cell growth incubated for 72 hrs by MTT assay; format: functional, cell-based; conditions: HT-29, 72 h

Compound | IC50 (HCT-116) [µM] | IC50 (HT-29) [µM]
CC[C@@]12CCC[N+]3([O-])CC[C@@]4(C(=Nc5ccccc54)[C@@H](O)C1)[C@@H]23 (stereo partly specified) | > 10 | > 10
CC[C@]1(CCC(=O)OC)CCCNC1 | > 10 | > 10
CC[C@@]12CCO[C@@H]1N(CC[C@]1(O)C(=O)Nc3ccccc31)CC[C@H]2O | > 10 | > 10
COC(=O)[C@H]1CO[C@H](C)[C@]2(O)C[N@+]3([O-])CCc4c([nH]c5ccccc45)[C@@H]3C[C@H]12 | > 10 | > 10
CC[C@@]12CCC[N@@+]3([O-])C[C@@H]4[C@@](O)(c5ccccc5N[C@]4(O)CC1)[C@@H]23 | > 10 | 7.1
CC[C@]12CCCN[C@]13/C(=C\C(=O)O)c1ccccc1N3C(=O)CC2 | > 10 | > 10
CC[C@]12CCCN(C1)C(=O)CC2 | > 10 | 7.2
COc1cccc2c1C(=O)c1c(O)c3c(c(O)c1C2=O)C[C@@](O)(C(=O)CO)C[C@@H]3O[C@H]1C[C@H](N)[C@H](O)[C@H](C)O1 [DOXORUBICIN] | 0.04 | 0.06
